Experimental data from ChEMBL document CHEMBL1629466, “Synthesis and biological activity of some antitumor active derivatives from glycyrrhetinic acid” (Eur J Med Chem, 2010).
Active and inactive are the calls of the source. The rule behind the calls is not given here.

Assays:
Format in all cases: functional, cell-based
SW-1736 = assay: Cytotoxicity against human SW1736 cells after 96 hrs by sulforhodamine B assay
HT-29 = assay: Cytotoxicity against human HT-29 cells after 96 hrs by sulforhodamine B assay
8505C = assay: Cytotoxicity against human 8505C cells after 96 hrs by sulforhodamine B assay
[1] = Cytotoxicity against human 518A2 cells after 96 hrs by sulforhodamine B assay
[2] = Cytotoxicity against human Lipo cells after 96 hrs by sulforhodamine B assay
HCT-116 = assay: Cytotoxicity against human HCT116 cells after 96 hrs by sulforhodamine B assay
FaDu = assay: Cytotoxicity against human FADU cells after 96 hrs by sulforhodamine B assay
A2780 [3] = assay: Cytotoxicity against human A2780 cells after 96 hrs by sulforhodamine B assay
MCF7 = assay: Cytotoxicity against human MCF7 cells after 96 hrs by sulforhodamine B assay
HCT-8 = assay: Cytotoxicity against human HCT8 cells after 96 hrs by sulforhodamine B assay
A549 = assay: Cytotoxicity against human A549 cells after 96 hrs by sulforhodamine B assay
[4] = Cytotoxicity against human A253 cells after 96 hrs by sulforhodamine B assay
DLD-1 = assay: Cytotoxicity against human DLD1 cells after 96 hrs by sulforhodamine B assay
SW480 = assay: Cytotoxicity against human SW480 cells after 96 hrs by sulforhodamine B assay
A-431 [5] = assay: Induction of apoptosis in human A431 cells assessed as DNA fragmentation at IC90 concentration after 24 hrs by gel electrophoresis analysis
A-431 [6] = assay: Induction of apoptosis in human A431 cells at IC90 concentration after 24 hrs by trypan blue exclusion assay
A2780 [7] = assay: Induction of apoptosis in human A2780 cells assessed as DNA fragmentation at IC90 concentration after 24 hrs by gel electrophoresis analysis
A2780 [8] = assay: Induction of apoptosis in human A2780 cells at IC90 concentration after 24 hrs by trypan blue exclusion assay

COC(=O)[C@@]1(C)CC[C@]2(C)CC[C@]3(C)C(=CC(=O)[C@@H]4[C@@]5(C)CC[C@H](OC(=O)CNCCCCCCCCCCN)C(C)(C)[C@@H]5CC[C@]43C)[C@@H]2C1
IC50 (SW-1736): 3.73 µmol
IC50 (HT-29): 2.73 µmol
IC50 (8505C): 7.6 µmol
IC50 [1]: 4.33 µmol
IC50 [2]: 6.93 µmol
IC50 (HCT-116): 3.86 µmol
IC50 (FaDu): 5.65 µmol
IC50 (A2780 [3]): 3.63 µmol
IC50 (MCF7): 2.68 µmol
IC50 (HCT-8): 4.07 µmol
IC50 (A549): 5.16 µmol
IC50 [4]: 5.48 µmol
IC50 (DLD-1): 5.53 µmol
IC50 (SW480): 4.73 µmol

COC(=O)[C@@]1(C)CC[C@]2(C)CC[C@]3(C)C(=CC(=O)[C@@H]4[C@@]5(C)CC[C@H](OC(=O)CNCCCCCCN)C(C)(C)[C@@H]5CC[C@]43C)[C@@H]2C1
IC50 (SW-1736): 1.61 µmol
IC50 (HT-29): 0.59 µmol
IC50 (8505C): 1.68 µmol
Activity (A-431 [5]): Active
IC50 [1]: 1.09 µmol
IC50 [2]: 1.59 µmol
Activity (A-431 [6]): Active
IC50 (HCT-116): 1.17 µmol
Activity (A2780 [7]): Active
IC50 (FaDu): 1.78 µmol
Activity (A2780 [8]): Active
IC50 (A2780 [3]): 1.36 µmol
IC50 (MCF7): 1.17 µmol
IC50 (HCT-8): 0.62 µmol
IC50 (A549): 1.59 µmol
IC50 [4]: 1.12 µmol
IC50 (DLD-1): 0.91 µmol
IC50 (SW480): 2.25 µmol

COC(=O)[C@@]1(C)CC[C@]2(C)CC[C@]3(C)C(=CC(=O)[C@@H]4[C@@]5(C)CC[C@H](OC(=O)CNCCCCN)C(C)(C)[C@@H]5CC[C@]43C)[C@@H]2C1
IC50 (SW-1736): 3.3 µmol
IC50 (HT-29): 1.69 µmol
IC50 (8505C): 2.12 µmol
IC50 [1]: 2.55 µmol
IC50 [2]: 2.57 µmol
IC50 (HCT-116): 2.41 µmol
IC50 (FaDu): 3.51 µmol
IC50 (A2780 [3]): 2.43 µmol
IC50 (MCF7): 2.45 µmol
IC50 (HCT-8): 1.51 µmol
IC50 (A549): 3.31 µmol
IC50 [4]: 2.56 µmol
IC50 (DLD-1): 2.66 µmol
IC50 (SW480): 2.54 µmol

COC(=O)[C@@]1(C)CC[C@]2(C)CC[C@]3(C)C(=CC(=O)[C@@H]4[C@@]5(C)CC[C@H](OC(=O)CNCCCCCCCCCN)C(C)(C)[C@@H]5CC[C@]43C)[C@@H]2C1
IC50 (SW-1736): 3.3 µmol
IC50 (HT-29): 2.06 µmol
IC50 (8505C): 6.18 µmol
IC50 [1]: 3.12 µmol
IC50 [2]: 5.48 µmol
IC50 (HCT-116): 3.44 µmol
IC50 (FaDu): 5.54 µmol
IC50 (A2780 [3]): 3.3 µmol
IC50 (MCF7): 3.33 µmol
IC50 (HCT-8): 2.42 µmol
IC50 (A549): 2.23 µmol
IC50 [4]: 4.65 µmol
IC50 (DLD-1): 4.5 µmol
IC50 (SW480): 5.74 µmol

CC1(C)[C@@H](OC(=O)CCl)CC[C@]2(C)[C@H]3C(=O)C=C4[C@@H]5C[C@@](C)(C(=O)O)CC[C@]5(C)CC[C@@]4(C)[C@]3(C)CC[C@@H]12
IC50 (SW-1736): 16.42 µmol
IC50 (HT-29): 16.91 µmol
IC50 (8505C): 26.08 µmol
IC50 [1]: 25.43 µmol
IC50 [2]: 25.39 µmol
IC50 (HCT-116): 14.41 µmol
IC50 (FaDu): 23.56 µmol
IC50 (A2780 [3]): 23.77 µmol
IC50 (MCF7): 25.11 µmol
IC50 (HCT-8): 13.39 µmol
IC50 (A549): 24.8 µmol
IC50 [4]: 25.54 µmol
IC50 (DLD-1): 17.36 µmol
IC50 (SW480): 25.91 µmol

COC(=O)[C@@]1(C)CC[C@]2(C)CC[C@]3(C)C(=CC(=O)[C@@H]4[C@@]5(C)CC[C@H](OC(=O)CCl)C(C)(C)[C@@H]5CC[C@]43C)[C@@H]2C1
IC50 (SW-1736): 3.14 µmol
IC50 (HT-29): 5.34 µmol
IC50 (8505C): 15.86 µmol
IC50 [1]: 5.24 µmol
IC50 [2]: 14.55 µmol
IC50 (HCT-116): 5.13 µmol
IC50 (FaDu): 12.44 µmol
IC50 (A2780 [3]): 6.01 µmol
IC50 (MCF7): 6.69 µmol
IC50 (HCT-8): 3.97 µmol
IC50 (A549): 8.39 µmol
IC50 [4]: 6.19 µmol
IC50 (DLD-1): 6.13 µmol
IC50 (SW480): 8.92 µmol

COC(=O)[C@@]1(C)CC[C@]2(C)CC[C@]3(C)C(=CC(=O)[C@@H]4[C@@]5(C)CC[C@H](OC(=O)CNCCCCCN)C(C)(C)[C@@H]5CC[C@]43C)[C@@H]2C1
IC50 (SW-1736): 2.69 µmol
IC50 (HT-29): 1.28 µmol
IC50 (8505C): 1.78 µmol
IC50 [1]: 2.02 µmol
IC50 [2]: 1.93 µmol
IC50 (HCT-116): 2.19 µmol
IC50 (FaDu): 3.3 µmol
IC50 (A2780 [3]): 2 µmol
IC50 (MCF7): 1.79 µmol
IC50 (HCT-8): 1.38 µmol
IC50 (A549): 2.52 µmol
IC50 [4]: 2.27 µmol
IC50 (DLD-1): 2.4 µmol
IC50 (SW480): 1.91 µmol

COC(=O)[C@@]1(C)CC[C@]2(C)CC[C@]3(C)C(=CC(=O)[C@@H]4[C@@]5(C)CC[C@H](OC(=O)CNCCCCCCCCN)C(C)(C)[C@@H]5CC[C@]43C)[C@@H]2C1
IC50 (SW-1736): 4.09 µmol
IC50 (HT-29): 2.76 µmol
IC50 (8505C): 3.35 µmol
IC50 [1]: 3.49 µmol
IC50 [2]: 4.36 µmol
IC50 (HCT-116): 3.53 µmol
IC50 (FaDu): 4.26 µmol
IC50 (A2780 [3]): 2.8 µmol
IC50 (MCF7): 3.89 µmol
IC50 (HCT-8): 2.92 µmol
IC50 (A549): 4.08 µmol
IC50 [4]: 3.01 µmol
IC50 (DLD-1): 3.96 µmol
IC50 (SW480): 3.93 µmol

CC1(C)[C@@H](O)CC[C@]2(C)[C@H]3C(=O)C=C4[C@@H]5C[C@@](C)(C(=O)O)CC[C@]5(C)CC[C@@]4(C)[C@]3(C)CC[C@@H]12 [ENOXOLONE]
IC50 (SW-1736): 76.93 µmol
IC50 (HT-29): 80.09 µmol
IC50 (8505C): 86.5 µmol
IC50 [1]: 83.92 µmol
IC50 [2]: 81.44 µmol
IC50 (HCT-116): 78.83 µmol
IC50 (FaDu): 84.55 µmol
IC50 (A2780 [3]): 74.57 µmol
IC50 (MCF7): 84.7 µmol
IC50 (HCT-8): 78.85 µmol
IC50 (A549): 82.76 µmol
IC50 [4]: 80.78 µmol
IC50 (DLD-1): 81.21 µmol
IC50 (SW480): 86.8 µmol

COC(=O)[C@@]1(C)CC[C@]2(C)CC[C@]3(C)C(=CC(=O)[C@@H]4[C@@]5(C)CC[C@H](O)C(C)(C)[C@@H]5CC[C@]43C)[C@@H]2C1
IC50 (SW-1736): 34.87 µmol
IC50 (HT-29): 27.54 µmol
IC50 (8505C): 26.07 µmol
IC50 [1]: 27.54 µmol
IC50 [2]: 20.47 µmol
IC50 (HCT-116): 22.1 µmol
IC50 (FaDu): 23.41 µmol
IC50 (A2780 [3]): 25.54 µmol
IC50 (MCF7): 22.14 µmol
IC50 (HCT-8): 24.36 µmol
IC50 (A549): 23.5 µmol
IC50 [4]: 19.42 µmol
IC50 (DLD-1): 26.12 µmol
IC50 (SW480): 16.08 µmol

COC(=O)[C@@]1(C)CC[C@]2(C)CC[C@]3(C)C(=CC(=O)[C@@H]4[C@@]5(C)CC[C@H](OC(=O)CNCCCN)C(C)(C)[C@@H]5CC[C@]43C)[C@@H]2C1
IC50 (SW-1736): 6.05 µmol
IC50 (HT-29): 2.9 µmol
IC50 (8505C): 3.37 µmol
IC50 [1]: 3.79 µmol
IC50 [2]: 3.89 µmol
IC50 (HCT-116): 4.3 µmol
IC50 (FaDu): 5.57 µmol
IC50 (A2780 [3]): 4.39 µmol
IC50 (MCF7): 3.55 µmol
IC50 (HCT-8): 2.37 µmol
IC50 (A549): 5.15 µmol
IC50 [4]: 3.64 µmol
IC50 (DLD-1): 4.39 µmol
IC50 (SW480): 3.68 µmol

COC(=O)[C@@]1(C)CC[C@]2(C)CC[C@]3(C)C(=CC(=O)[C@@H]4[C@@]5(C)CC[C@H](OC(=O)CNCCCCCCCN)C(C)(C)[C@@H]5CC[C@]43C)[C@@H]2C1
IC50 (SW-1736): 2.24 µmol
IC50 (HT-29): 0.86 µmol
IC50 (8505C): 2.13 µmol
IC50 [1]: 1.27 µmol
IC50 [2]: 1.44 µmol
IC50 (HCT-116): 1.7 µmol
IC50 (FaDu): 2.2 µmol
IC50 (A2780 [3]): 1.14 µmol
IC50 (MCF7): 0.98 µmol
IC50 (HCT-8): 0.89 µmol
IC50 (A549): 2.21 µmol
IC50 [4]: 1.74 µmol
IC50 (DLD-1): 1.25 µmol
IC50 (SW480): 2.24 µmol
